From US20080118437A1, “Diagnosis and treatment O prostate cancer” (Regents of the University of Michigan, priority 2006, published 2008)

Assays:
VCaP xenografts = assay: VCaP subcutaneous xenograft model of tumorigenesis; assay type: in vivo, male SCID mice
Protocol: Xenograft tumors were established as previously described (Loberg et al., Urol Oncol 24 (2006) 161-168). Briefly, male SCID mice (5-6 weeks of age) were injected subcutaneously in the flank with 1×10^6 VCaP cells in 200 μL Matrigel (BD Biosciences, Inc.). Tumor volumes were calculated by caliper measurement performed weekly to monitor and track tumor growth (tumor volume=L×W×W×0.56). […] Mice were treated with 2 mg/Kg antibody twice weekly by intraperitoneal injection, beginning on Day 28 and for the remainder of the study.
Xenograft tumors were harvested and placed in fresh 10% formalin. Tumors were paraffin-embedded and 5 μm sections were cut and placed on glass slides. Hematoxylin and eosin stain was performed per the manufacturer's instructions (Sigma, Inc.). Identification of neovascularization was accomplished by labeling with an anti-CD31 antibody and macrophage infiltration was identified using an anti-CD68 antibody. Tissue sections were incubated for 10 minutes in citrate buffer, pH 6.0 and microwaved. Sections were incubated with anti-CD31 (DakoCytomation, Inc.; 1:50) or anti-CD68 (DaKoCytomation, Inc.; 1:1600) for 30 minutes and detected with LSAB+detection/DAB (3,3′-Diaminobenzidine; Sigma, Inc.) for 5 minutes. Slides were dipped in hematoxylin for 1 second as a counterstain.

PC-3Luc cells = assay: WST-1 proliferation assay with hrCCL2 and anti-CCL2 antibodies; assay type: cell-based, human; conditions: 72 hours, antibodies 30 μg/mL
Protocol: Cells were seeded at a density of 1×10^5 cells/ml for PC-3Luc cells in a 96 well plate in RPMI+10% FBS (FCS is mentioned in previous section). Twenty-four hours after seeding, media was changed to either serum-free RPMI or RPMI+10% FBS. Cell growth was determined 72 hours later using the WST-1 assay (Pierce Biotech, Inc.) following the manufacturer's instructions.

PC-3 cells = assay: Transwell migration assay toward hrCCL2; assay type: cell-based, human; conditions: hrCCL2 100 ng/mL, 24 hours
Protocol: (§1) Increasing concentrations of CCL2 (1-100 ng/mL) or conditioned media was added to the lower chamber of a 24-well plate. Cells were harvested by EDTA release and resuspended in serum free media at 5×10^4 cells/ml. 2.5×10^4 cells were added to the upper chamber of the transwell insert and incubated for 24 hours at 37° C. and 5% CO^2 atmosphere. At the end of the incubation period, the cells were fixed with 4% formaldehyde in PBS for 5 minutes. Non-adherent cells were removed from inside the inserts with a cotton-tipped applicator. Cells which had migrated to the underside of the insert were stained with 0.5% crystal violet for 5 minutes and rinsed thoroughly with tap water. Inserts were allowed to dry and the cells were counted using an inverted microscope.

[1] = system: HDMVEC (human dermal microvacular endothelial cells); assay: Endothelial tube formation assay in VCaP conditioned media; assay type: cell-based; conditions: 30 μg/mL in VCaP conditioned media; vs isotype control antibody
Protocol: In vitro tube formation was performed as previously described (Zhou et al., Int J Cancer 110 (2004) 800-806). Growth factor reduced […] was diluted with cold serum-free medium to a concentration of 10 mg/ml. 50 μl of the solution was added to each well of a 96-well plate and allowed to form a gel at 37° C. for 30 min. HDMVEC (human dermal microvacular endothelial cells) cells (150,000 cells/ml) in VCaP conditioned media (VCaP CM) were added to each well and incubated overnight at 37° C. in 5% CO2. […] Under these conditions, EC will form delicate networks of tubes that are detectable within 2-3 h and are fully developed after 8-12 h. After overnight incubation the wells were washed, and the […] and its endothelial tubes were fixed with 3% paraformaldehyde. Tube formation was quantified by counting the number of sprouts that developed per objective field (100×) and assays were performed in triplicate from 3 independent experiments.

U937 premonocytic cells = assay: Macrophage migration assay (modified Boyden chamber); assay type: cell-based, human; conditions: VCaP conditioned media; pre-incubation 30 μg/mL
Protocol: as §1, with “Increasing concentrations of CCL2 (1-100 ng/mL) or conditioned media was added to the lower chamber of a 24-well plate.” left out, “by 0.5 μM” for “by”, “CO2” for “CO^2”, “with” for “with a”, “swabs.” for “applicator.”, “that” for “which”

VCaP cells = assay: Immunoblot analysis of CCL2 stimulated VCaP cells; assay type: cell-based, human; conditions: CCL2 100 ng/mL for 24 hours
Protocol: Cells were lysed in RIPA buffer (50 mM Tris-HCl, pH 7.4, 1% NP-40, 150 mM NaCl, 1 mM EDTA, 1 mM PMSF, 1 mM Na3VO4, 1 mM NaF, 1 μM okadaic acid and 1 μg/mL aprotinin, leupeptin and pepstatin). Proteins were separated under reducing conditions by SDS-PAGE and transferred onto nitrocellulose membranes. The membranes were blocked with 5% milk in TBST (0.1% Tween in TBS) for 1 hour at room temperature, then were incubated overnight at 4° C. with primary antibodies. Membranes were washed 3 times prior to incubation with HRP-conjugated secondary antibodies (Cell Signaling) for 1 hour at room temperature. Protein expression was visualized by ECL chemiluminescence (Promega, Madison, Wis.) and quantitated using Image J software (NCl, Bethesda, Md.).

mouse CCL2/JE = mouse CCL2/JE (Mus musculus, UniProt P10148); assay: Cross-reactivity / neutralization; assay type: binding

cross-reaction with or neutralization of mouse CCL2/JE (mouse CCL2/JE): do not cross-react with or neutralize
Substance: CNTO888: human IgG1κ antibody that neutralizes human CCL2
attenuation of VCaP subcutaneous tumor growth (VCaP xenografts; 2 mg/Kg twice weekly i.p.): 42.2% | reduction in tumor volume / tumor growth on Day 50 compared to control antibody (VCaP xenografts; 2 mg/Kg twice weekly i.p. from Day 28 for 3 weeks): 42.2% | macrophage infiltration, CD68+ cells, mean ±SD (VCaP xenografts; VCaP xenograft, 2 mg/Kg twice weekly i.p.): 9.00±7.94 cells per 100× objective field | angiogenesis by CD31 staining of xenograft tumors (VCaP xenografts; compared to isotype controls): decreased the amount of angiogenesis | cell viability (WST-1) as a measure of proliferation, mean ±SD (PC-3Luc cells; CCL2 10 ng/mL): 112.52±10.2 | cell viability (WST-1) as a measure of proliferation, mean ±SD (PC-3Luc cells; CCL2 100 ng/mL): 132.93±17.08 | hrCCL2-induced migration, mean ±SD (PC-3 cells): 217±29 | number of capillary-like tubes formed [1]: significantly reduced | number of migrating U937 cells (U937 premonocytic cells): 225±111 | CCL2 induced Akt phosphorylation and p44/p42 MAPK phosphorylation (VCaP cells): attenuated
